Experimental findings from ChEMBL document CHEMBL1148857, “In vitro and in vivo profile of 5-[(4'-trifluoromethyl-biphenyl-2-carbonyl)-amino]-1H-indole-2-carboxylic acid benzylmethyl carbamoylamide (dirlotapide), a novel potent MTP inhibitor for obesity” (Bioorg Med Chem Lett, 2007) are described below.

Series [1] can be described thus: Inhibition of MTP assessed as inhibition of apoB secretion from canine hepatocytes. The following applies: Canis lupus familiaris, Hepatocyte. It is filed as cell-based.
The target in series [2] is B2 bradykinin receptor (Homo sapiens) (UniProt P30411). In words: Inhibition of bradykinin B2 receptor at 1 uM.
Sequence of B2 bradykinin receptor (Homo sapiens) (P30411 whole entry): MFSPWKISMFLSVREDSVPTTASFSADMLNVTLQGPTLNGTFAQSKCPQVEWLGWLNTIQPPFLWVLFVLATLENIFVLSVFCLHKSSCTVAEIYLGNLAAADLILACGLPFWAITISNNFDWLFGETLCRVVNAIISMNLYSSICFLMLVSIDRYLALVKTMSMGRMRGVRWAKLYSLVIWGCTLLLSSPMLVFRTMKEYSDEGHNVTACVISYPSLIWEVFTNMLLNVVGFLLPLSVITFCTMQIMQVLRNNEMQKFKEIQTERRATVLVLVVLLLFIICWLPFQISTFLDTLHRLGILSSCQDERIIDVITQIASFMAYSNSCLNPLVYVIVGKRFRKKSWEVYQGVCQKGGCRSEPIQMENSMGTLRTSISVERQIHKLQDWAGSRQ
For a further series, the species on record is Homo sapiens. The experiment in a line: Inhibition of N-type calcium channel at 1 uM.
Series [3] is described as follows: Permeability from apical to basolateral side of the Caco-2 cell membrane at 1 uM in presence of calcium. Type of series: ADME, cell-based. Particulars: human.
The nature of series [4]: Intrinsic clearance in rat microsomes. Type of series: ADME, Microsome.
In another series the test system is CYP3A4. In words: Metabolic stability in human liver microsome at 0.5 uM in presence of 1 uM CYP3A4 inhibitor ketoconazole. Type of series: ADME. The following applies: liver microsomes, with 1 uM ketoconazole (CYP3A4 inhibitor).
The nature of series [5]: Ratio of drug level in blood to plasma in human. It is filed as ADME, cell-free. Particulars: blood and plasma, read-out: BPR.
Series [6] is described as follows: Half life in Beagle dog at 0.5 mg/kg, iv. The following applies: in vivo. More on the design: dose 0.5 mg/kg, route intravenous. It is filed as ADME, organism-based, Canis lupus familiaris.
The nature of series [7]: Half life in portal cannulated Beagle dog at 1 mg/kg, iv. Type of series: ADME, organism-based, Canis lupus familiaris. More on the design: dose 1 mg/kg, route intravenous. The following applies: in vivo.
Series [8] in a line: AUC (0 to t) in rat at 1 mg/kg, iv. The arrangement: dose 1 mg/kg, route intravenous. The following applies: plasma. It is filed as ADME, organism-based.
Series [9] in a line: AUC (0 to infinity) in rat at 5 mg/kg, iv. The arrangement: time infinity, dose 5 mg/kg, route intravenous. The following applies: plasma. Type of series: ADME, organism-based.
Series [10] can be described thus: AUC (0 to infinity) in Beagle dog at 0.5 mg/kg, iv. Type of series: ADME, organism-based, Canis lupus familiaris. The arrangement: time infinity, dose 0.5 mg/kg, route intravenous. The following applies: plasma.
A short description of series [11]: AUC (0 to infinity) in male rat at 30 mg/kg, po. Type of series: ADME, organism-based. More on the design: time infinity, dose 30 mg/kg, route oral. The following applies: plasma.
The nature of series [12]: Cmax in portal cannulated Beagle dog at 1 mg/kg, po. Type of series: ADME, organism-based, Canis lupus familiaris. The following applies: in vivo. More on the design: dose 1 mg/kg, route oral.
Series [13] is described as follows: Bioavailability in rat at 3 mg/kg, po. Type of series: ADME, organism-based. The following applies: in vivo.
The nature of series [14]: Bioavailability in rat at 30 mg/kg, po. It is filed as ADME, organism-based. Particulars: in vivo.
Series [15] is described as follows: Bioavailability in portal cannulated Beagle dog at 1 mg/kg, po. Type of series: ADME, organism-based, Canis lupus familiaris. Particulars: in vivo.
Another series relates to Canis familiaris. In words: Increase in fecal fat in obese Beagle dog at 0.39 mg/kg, po after 3 months. Type of series: functional, Canis lupus familiaris, Feces.
The nature of series [16]: Permeability from apical to basolateral side of the Caco-2 cell membrane at 10 uM in presence of calcium. Type of series: ADME, cell-based. Particulars: human.
Another series deals with Cytochrome P450 1A2 (Homo sapiens, UniProt P05177). The experiment in a line: Inhibition of CYP1A2. It is filed as ADME.
Sequence of Cytochrome P450 1A2 (P05177 whole entry): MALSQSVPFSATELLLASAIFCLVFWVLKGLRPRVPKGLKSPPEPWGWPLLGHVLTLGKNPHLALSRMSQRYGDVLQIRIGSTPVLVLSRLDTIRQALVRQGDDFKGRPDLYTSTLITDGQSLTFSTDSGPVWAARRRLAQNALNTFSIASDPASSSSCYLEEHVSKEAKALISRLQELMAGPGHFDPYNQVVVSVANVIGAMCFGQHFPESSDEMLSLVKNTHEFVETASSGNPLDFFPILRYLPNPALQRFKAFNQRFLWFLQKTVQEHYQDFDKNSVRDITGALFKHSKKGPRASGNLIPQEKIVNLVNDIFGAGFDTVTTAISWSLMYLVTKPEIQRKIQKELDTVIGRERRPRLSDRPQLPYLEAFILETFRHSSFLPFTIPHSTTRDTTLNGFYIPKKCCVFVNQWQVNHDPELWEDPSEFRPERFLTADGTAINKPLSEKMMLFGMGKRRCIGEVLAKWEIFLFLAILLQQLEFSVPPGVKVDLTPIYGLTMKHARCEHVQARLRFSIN

Activity calls are given as the source filed them. The calls are words filed in the database; no cut-off is given here. Bounds are passed on as bounds.

In the case of `CN(Cc1ccccc1)C(=O)[C@@H](NC(=O)c1cc2cc(NC(=O)c3ccccc3-c3ccc(C(F)(F)F)cc3)ccc2n1C)c1ccccc1` [DIRLOTAPIDE], the IC50 in series [1] was 1.5 nM; against Cytochrome P450 1A2 it was above 30000 nM. The outcome (in [2]; in the series listed under Homo sapiens) was inactive. In series [3], the apparent permeability from apical to basolateral (Papp A→B) at 1 µM stood at 0.6 ×10⁻⁶ cm/s. Besides, the CLint scaled in series [4] was 645 mL/min/kg. Besides, the half-life at 0.5 µM in the series with CYP3A4 amounted to 6.15 h. In addition, the blood plasma ratio in series [5] came out at 0.61. Further, the figures for the half-life in series [6] and in series [7] were 5 h and 7.8 h, respectively. In series [8], this compound had an AUC(0-t) of 485 ng·h/mL. Moreover, the total exposure AUC(0-inf) in series [9] was determined as 5890 ng·h/mL; in series [10], 1550 ng·h/mL; in series [11] it was 379 ng·h/mL. Besides, the concentration in series [12] peaked (Cmax) at 26.8 ng/mL. Further, the bioavailability in series [13] stood at 2.6%; in series [14], 2.3%; in [15] it was 10.6%. The Activity in the series on Canis familiaris is listed as 1.86%. Besides, the apparent permeability from apical to basolateral (Papp A→B) at 10 µM in [16] is 0.4 ×10⁻⁶ cm/s.
